In US12396461B2, “Functional peptides having antimicrobial activity against phytopathogenic microorganisms” (TOYOTA JIDOSHA KABUSHIKI KAISHA, priority 2019, dated 2025):
Several values for one entry are separate records, joined by “and”; a condition that tells them apart may be missing. Equal values may be shown once. Read-outs that look alike come from different tables or passages of the source.

Experiments:
Assay type in all cases: cell-based
[1] = tested on: Pyricularia oryzae; parameters: key to Plate antimicrobial activity test Pyricularia oryzae, level: a case where hyphae extended to the entire well and no antimicrobial activity was found is defined as “level 0,”; a case where hyphae extended to less than a half of the well and thus the peptide inhibited the growth of the hyphae is defined as “level 1,”; a case where ungerminated spores were present and the peptide partially inhibited the germination is defined as “level 2,”; a case where all spores were ungerminated and the peptide completely inhibited the germination is defined as “level 3.”; details: 25° C. for 1 day or 2 days, microscopic observation
[2] = tested on: Botrytis cinerea; parameters: key to Plate antimicrobial activity test Botrytis cinerea, level: a case where hyphae extended to the entire well and no antimicrobial activity was found is defined as “level 0,”; a case where hyphae extended to less than a half of the well and thus the peptide inhibited the growth of the hyphae is defined as “level 1,”; a case where ungerminated spores were present and the peptide partially inhibited the germination is defined as “level 2,”; a case where all spores were ungerminated and the peptide completely inhibited the germination is defined as “level 3.”; details: 25° C. for 1 day or 2 days, microscopic observation
[3] = tested on: Colletotrichum orbiculare; parameters: key to Plate antimicrobial activity test Colletotrichum orbiculare, level: a case where hyphae extended to the entire well and no antimicrobial activity was found is defined as “level 0,”; a case where hyphae extended to less than a half of the well and thus the peptide inhibited the growth of the hyphae is defined as “level 1,”; a case where ungerminated spores were present and the peptide partially inhibited the germination is defined as “level 2,”; a case where all spores were ungerminated and the peptide completely inhibited the germination is defined as “level 3.”; details: 25° C. for 1 day or 2 days, microscopic observation
[4] = tested on: Fusarium oxysporum; parameters: key to Plate antimicrobial activity test Fusarium oxysporum, level: a case where hyphae extended to the entire well and no antimicrobial activity was found is defined as “level 0,”; a case where hyphae extended to less than a half of the well and thus the peptide inhibited the growth of the hyphae is defined as “level 1,”; a case where ungerminated spores were present and the peptide partially inhibited the germination is defined as “level 2,”; a case where all spores were ungerminated and the peptide completely inhibited the germination is defined as “level 3.”
[5] = tested on: Colletotrichum destructivum; parameters: key to Plate antimicrobial activity test Colletotrichum destructivum, level: a case where hyphae extended to the entire well and no antimicrobial activity was found is defined as “level 0,”; a case where hyphae extended to less than a half of the well and thus the peptide inhibited the growth of the hyphae is defined as “level 1,”; a case where ungerminated spores were present and the peptide partially inhibited the germination is defined as “level 2,”; a case where all spores were ungerminated and the peptide completely inhibited the germination is defined as “level 3.”; details: 25° C. for 1 day or 2 days, microscopic observation

EELMVVAEEEAYRRVRGGMGW (listed as Solanum lycopersicum) [TsORF6-3, chemically synthesized region of TsORF6]
0: Plate antimicrobial activity test Pyricularia oryzae, level ([1]; peptide 1 μM) | Plate antimicrobial activity test Pyricularia oryzae, level ([1]; peptide 10 μM) | Plate antimicrobial activity test Pyricularia oryzae, level ([1]; peptide 100 μM) | Plate antimicrobial activity test Botrytis cinerea, level ([2]; peptide 1 μM) | Plate antimicrobial activity test Botrytis cinerea, level ([2]; peptide 10 μM) | Plate antimicrobial activity test Botrytis cinerea, level ([2]; peptide 100 μM) | Plate antimicrobial activity test Colletotrichum orbiculare, level ([3]; peptide 1 μM) | Plate antimicrobial activity test Colletotrichum orbiculare, level ([3]; peptide 10 μM) | Plate antimicrobial activity test Colletotrichum orbiculare, level ([3]; peptide 100 μM) | Plate antimicrobial activity test Fusarium oxysporum, level [4] | Plate antimicrobial activity test Colletotrichum destructivum, level ([5]; peptide 1 μM) | Plate antimicrobial activity test Colletotrichum destructivum, level ([5]; peptide 10 μM) | Plate antimicrobial activity test Colletotrichum destructivum, level ([5]; peptide 100 μM)

IVVKT (listed as Solanum lycopersicum) [TsORF6-1-5aa-5, partial peptide of TsORF6-1, 5 amino acid residues]
0: Plate antimicrobial activity test Pyricularia oryzae, level ([1]; peptide 1 μM) | Plate antimicrobial activity test Pyricularia oryzae, level ([1]; peptide 10 μM) | Plate antimicrobial activity test Pyricularia oryzae, level ([1]; peptide 100 μM) | Plate antimicrobial activity test Botrytis cinerea, level ([2]; peptide 1 μM) | Plate antimicrobial activity test Botrytis cinerea, level ([2]; peptide 10 μM) | Plate antimicrobial activity test Botrytis cinerea, level ([2]; peptide 100 μM) | Plate antimicrobial activity test Colletotrichum orbiculare, level ([3]; peptide 1 μM) | Plate antimicrobial activity test Colletotrichum orbiculare, level ([3]; peptide 10 μM) | Plate antimicrobial activity test Colletotrichum orbiculare, level ([3]; peptide 100 μM) | Plate antimicrobial activity test Fusarium oxysporum, level [4] | Plate antimicrobial activity test Colletotrichum destructivum, level ([5]; peptide 1 μM) | Plate antimicrobial activity test Colletotrichum destructivum, level ([5]; peptide 10 μM) | Plate antimicrobial activity test Colletotrichum destructivum, level ([5]; peptide 100 μM)

IVVKTKVK (listed as Solanum lycopersicum) [TsORF6-1-8aa-5, partial peptide of TsORF6-1, 8 amino acid residues]
0: Plate antimicrobial activity test Pyricularia oryzae, level ([1]; peptide 1 μM) | Plate antimicrobial activity test Pyricularia oryzae, level ([1]; peptide 10 μM) | Plate antimicrobial activity test Pyricularia oryzae, level ([1]; peptide 100 μM) | Plate antimicrobial activity test Botrytis cinerea, level ([2]; peptide 1 μM) | Plate antimicrobial activity test Botrytis cinerea, level ([2]; peptide 10 μM) | Plate antimicrobial activity test Botrytis cinerea, level ([2]; peptide 100 μM) | Plate antimicrobial activity test Colletotrichum orbiculare, level ([3]; peptide 1 μM) | Plate antimicrobial activity test Colletotrichum orbiculare, level ([3]; peptide 10 μM) | Plate antimicrobial activity test Colletotrichum orbiculare, level ([3]; peptide 100 μM) | Plate antimicrobial activity test Fusarium oxysporum, level [4] | Plate antimicrobial activity test Colletotrichum destructivum, level ([5]; peptide 1 μM) | Plate antimicrobial activity test Colletotrichum destructivum, level ([5]; peptide 10 μM) | Plate antimicrobial activity test Colletotrichum destructivum, level ([5]; peptide 100 μM)

KKVAKMMV (listed as Solanum lycopersicum) [TsORF6-1-8aa-14, partial peptide of TsORF6-1, 8 amino acid residues]
0: Plate antimicrobial activity test Pyricularia oryzae, level ([1]; peptide 1 μM) | Plate antimicrobial activity test Pyricularia oryzae, level ([1]; peptide 10 μM) | Plate antimicrobial activity test Pyricularia oryzae, level ([1]; peptide 100 μM) | Plate antimicrobial activity test Botrytis cinerea, level ([2]; peptide 1 μM) | Plate antimicrobial activity test Botrytis cinerea, level ([2]; peptide 10 μM) | Plate antimicrobial activity test Botrytis cinerea, level ([2]; peptide 100 μM) | Plate antimicrobial activity test Colletotrichum orbiculare, level ([3]; peptide 1 μM) | Plate antimicrobial activity test Colletotrichum orbiculare, level ([3]; peptide 10 μM) | Plate antimicrobial activity test Colletotrichum orbiculare, level ([3]; peptide 100 μM) | Plate antimicrobial activity test Fusarium oxysporum, level [4] | Plate antimicrobial activity test Colletotrichum destructivum, level ([5]; peptide 1 μM) | Plate antimicrobial activity test Colletotrichum destructivum, level ([5]; peptide 10 μM) | Plate antimicrobial activity test Colletotrichum destructivum, level ([5]; peptide 100 μM)

KMMVKEDEKNKRVITMKEELMV (listed as Solanum lycopersicum) [TsORF6-2, chemically synthesized region of TsORF6]
1 and 0: Plate antimicrobial activity test Fusarium oxysporum, level [4]
2: Plate antimicrobial activity test Botrytis cinerea, level ([2]; peptide 100 μM)
0: Plate antimicrobial activity test Pyricularia oryzae, level ([1]; peptide 1 μM) | Plate antimicrobial activity test Pyricularia oryzae, level ([1]; peptide 10 μM) | Plate antimicrobial activity test Pyricularia oryzae, level ([1]; peptide 100 μM) | Plate antimicrobial activity test Botrytis cinerea, level ([2]; peptide 1 μM) | Plate antimicrobial activity test Botrytis cinerea, level ([2]; peptide 10 μM) | Plate antimicrobial activity test Colletotrichum orbiculare, level ([3]; peptide 1 μM) | Plate antimicrobial activity test Colletotrichum orbiculare, level ([3]; peptide 10 μM) | Plate antimicrobial activity test Colletotrichum orbiculare, level ([3]; peptide 100 μM) | Plate antimicrobial activity test Colletotrichum destructivum, level ([5]; peptide 1 μM) | Plate antimicrobial activity test Colletotrichum destructivum, level ([5]; peptide 10 μM) | Plate antimicrobial activity test Colletotrichum destructivum, level ([5]; peptide 100 μM)

KNKKV (listed as Solanum lycopersicum) [TsORF6-1-5aa-12, partial peptide of TsORF6-1, 5 amino acid residues]
0: Plate antimicrobial activity test Pyricularia oryzae, level ([1]; peptide 1 μM) | Plate antimicrobial activity test Pyricularia oryzae, level ([1]; peptide 10 μM) | Plate antimicrobial activity test Pyricularia oryzae, level ([1]; peptide 100 μM) | Plate antimicrobial activity test Botrytis cinerea, level ([2]; peptide 1 μM) | Plate antimicrobial activity test Botrytis cinerea, level ([2]; peptide 10 μM) | Plate antimicrobial activity test Botrytis cinerea, level ([2]; peptide 100 μM) | Plate antimicrobial activity test Colletotrichum orbiculare, level ([3]; peptide 1 μM) | Plate antimicrobial activity test Colletotrichum orbiculare, level ([3]; peptide 10 μM) | Plate antimicrobial activity test Colletotrichum orbiculare, level ([3]; peptide 100 μM) | Plate antimicrobial activity test Fusarium oxysporum, level [4] | Plate antimicrobial activity test Colletotrichum destructivum, level ([5]; peptide 1 μM) | Plate antimicrobial activity test Colletotrichum destructivum, level ([5]; peptide 10 μM) | Plate antimicrobial activity test Colletotrichum destructivum, level ([5]; peptide 100 μM)

KNKKVAKM (listed as Solanum lycopersicum) [TsORF6-1-8aa-12, partial peptide of TsORF6-1, 8 amino acid residues]
0: Plate antimicrobial activity test Pyricularia oryzae, level ([1]; peptide 1 μM) | Plate antimicrobial activity test Pyricularia oryzae, level ([1]; peptide 10 μM) | Plate antimicrobial activity test Pyricularia oryzae, level ([1]; peptide 100 μM) | Plate antimicrobial activity test Botrytis cinerea, level ([2]; peptide 1 μM) | Plate antimicrobial activity test Botrytis cinerea, level ([2]; peptide 10 μM) | Plate antimicrobial activity test Botrytis cinerea, level ([2]; peptide 100 μM) | Plate antimicrobial activity test Colletotrichum orbiculare, level ([3]; peptide 1 μM) | Plate antimicrobial activity test Colletotrichum orbiculare, level ([3]; peptide 10 μM) | Plate antimicrobial activity test Colletotrichum orbiculare, level ([3]; peptide 100 μM) | Plate antimicrobial activity test Fusarium oxysporum, level [4] | Plate antimicrobial activity test Colletotrichum destructivum, level ([5]; peptide 1 μM) | Plate antimicrobial activity test Colletotrichum destructivum, level ([5]; peptide 10 μM) | Plate antimicrobial activity test Colletotrichum destructivum, level ([5]; peptide 100 μM)

KTKVK (listed as Solanum lycopersicum) [TsORF6-1-5aa-8, partial peptide of TsORF6-1, 5 amino acid residues]
0: Plate antimicrobial activity test Pyricularia oryzae, level ([1]; peptide 1 μM) | Plate antimicrobial activity test Pyricularia oryzae, level ([1]; peptide 10 μM) | Plate antimicrobial activity test Pyricularia oryzae, level ([1]; peptide 100 μM) | Plate antimicrobial activity test Botrytis cinerea, level ([2]; peptide 1 μM) | Plate antimicrobial activity test Botrytis cinerea, level ([2]; peptide 10 μM) | Plate antimicrobial activity test Botrytis cinerea, level ([2]; peptide 100 μM) | Plate antimicrobial activity test Colletotrichum orbiculare, level ([3]; peptide 1 μM) | Plate antimicrobial activity test Colletotrichum orbiculare, level ([3]; peptide 10 μM) | Plate antimicrobial activity test Colletotrichum orbiculare, level ([3]; peptide 100 μM) | Plate antimicrobial activity test Fusarium oxysporum, level [4] | Plate antimicrobial activity test Colletotrichum destructivum, level ([5]; peptide 1 μM) | Plate antimicrobial activity test Colletotrichum destructivum, level ([5]; peptide 10 μM) | Plate antimicrobial activity test Colletotrichum destructivum, level ([5]; peptide 100 μM)

KTKVKNKK (listed as Solanum lycopersicum) [TsORF6-1-8aa-8, partial peptide of TsORF6-1, 8 amino acid residues]
1: Plate antimicrobial activity test Botrytis cinerea, level ([2]; peptide 100 μM)
0: Plate antimicrobial activity test Pyricularia oryzae, level ([1]; peptide 1 μM) | Plate antimicrobial activity test Pyricularia oryzae, level ([1]; peptide 10 μM) | Plate antimicrobial activity test Pyricularia oryzae, level ([1]; peptide 100 μM) | Plate antimicrobial activity test Botrytis cinerea, level ([2]; peptide 1 μM) | Plate antimicrobial activity test Botrytis cinerea, level ([2]; peptide 10 μM) | Plate antimicrobial activity test Colletotrichum orbiculare, level ([3]; peptide 1 μM) | Plate antimicrobial activity test Colletotrichum orbiculare, level ([3]; peptide 10 μM) | Plate antimicrobial activity test Colletotrichum orbiculare, level ([3]; peptide 100 μM) | Plate antimicrobial activity test Fusarium oxysporum, level [4] | Plate antimicrobial activity test Colletotrichum destructivum, level ([5]; peptide 1 μM) | Plate antimicrobial activity test Colletotrichum destructivum, level ([5]; peptide 10 μM) | Plate antimicrobial activity test Colletotrichum destructivum, level ([5]; peptide 100 μM)

KVAKMMVK (listed as Solanum lycopersicum) [TsORF6-1-8aa-15, partial peptide of TsORF6-1, 8 amino acid residues]
0: Plate antimicrobial activity test Pyricularia oryzae, level ([1]; peptide 1 μM) | Plate antimicrobial activity test Pyricularia oryzae, level ([1]; peptide 10 μM) | Plate antimicrobial activity test Pyricularia oryzae, level ([1]; peptide 100 μM) | Plate antimicrobial activity test Botrytis cinerea, level ([2]; peptide 1 μM) | Plate antimicrobial activity test Botrytis cinerea, level ([2]; peptide 10 μM) | Plate antimicrobial activity test Botrytis cinerea, level ([2]; peptide 100 μM) | Plate antimicrobial activity test Colletotrichum orbiculare, level ([3]; peptide 1 μM) | Plate antimicrobial activity test Colletotrichum orbiculare, level ([3]; peptide 10 μM) | Plate antimicrobial activity test Colletotrichum orbiculare, level ([3]; peptide 100 μM) | Plate antimicrobial activity test Fusarium oxysporum, level [4] | Plate antimicrobial activity test Colletotrichum destructivum, level ([5]; peptide 1 μM) | Plate antimicrobial activity test Colletotrichum destructivum, level ([5]; peptide 10 μM) | Plate antimicrobial activity test Colletotrichum destructivum, level ([5]; peptide 100 μM)
